Results from paper PMC6597546, “Identification of a potent benzoxaborole drug candidate for treating cryptosporidiosis” (Nature Communications, 2019).
Where “and” joins values, the source holds several entries; their conditions need not be identical. Equal values may be shown once. Read-outs that look alike come from different tables or passages of the source.

Columns and labels:
[1] = test system: C. parvum (Bunch Grass Farms Iowa isolate); assay: Time-kill curve assay in HCT-8 cells; type: cell-based, Cryptosporidium parvum; settings: for time-kill curve result: compound added ~24 h after infection of HCT-8
Method: The invasion assay, DNA replication assay, asexual to sexual stage conversion, and time-kill curve assays were performed using fluorescence microscopy to enumerate parasites and host cell nuclei. Staining protocols are individually described for each assay. Unless noted otherwise, the details of image acquisition were as follows. An inverted Nikon Eclipse Ti2000 microscope with an automated stage and Perfect Focus was used with NIS-Elements Advanced Research software (Nikon, USA, version 4.30.01) to image the wells. The microscope was programmed to focus on the center of each well and then take a 3 × 3 composite image per well using a 20 × (0.45 NA) objective. Images were exported as .tiff files and parasites and host nuclei counted using a custom macro on ImageJ (National Institutes of Health, version 1.52a). Data were analyzed using Microsoft Excel and GraphPad Prism (version 6.01). […] C. parvum Iowa isolate oocysts (Bunch Grass Farms, Deary, ID) were treated to induce excystation and added to >90% confluent HCT-8 cells in 384-well plates. […] The monolayers were then washed, fixed, and stained with Vicia villosa lectin and DAPI at the indicated time points, and imaged as for the C. parvum growth assay. Separate 384-well plates were used for each time point. Parasite numbers were normalized to host cell nucleus numbers and expressed as the percentage of host cells infected. Drug-induced parasite decay was isolated from the reduction in parasites over time that occurs spontaneously in the HCT-8 culture system by expressing the number of parasites as the percentage of the number of parasites present at each time point under control (DMSO-treated) conditions.

[2] = test system: C. parvum; assay: C. parvum growth inhibition in HCT-8 cells (follow-up assay, Vicia villosa lectin staining); type: cell-based, Cryptosporidium parvum; settings: Iowa (BGF, 10%FBS), HCT-8, single replicates, unit inferred, read-out: In vitro efficacy (Fig 2b, EC50)
Method: Follow-up assays were performed at the University of Vermont (UVM) and Calibr at Scripps Research by infection of the colonic adenocarcinoma cell line HCT-8 (ATCC CCL-244) and staining with the Vicia villosa lectin and DAPI[17],[32]. The FBS concentrations and parasites used for these assays were as indicated; parasite isolates and sources included C. parvum Iowa isolate oocysts purchased from Bunch Grass Farm (Deary, ID), C. parvum Iowa isolate oocysts purchased from the Sterling Laboratory (University of Arizona, Tucson, AZ), wild type C. parvum oocysts provided by Dr. Jenni Zambriski (Virginia Tech, Blacksburg, VA), and the C. hominis TU502 isolate purchased from Dr. Saul Tzipori (Tufts University Cummings School of Veterinary Medicine, North Grafton, MA). […] Amphotericin B (Sigma, catalog# A2942) was added to the culture media at 0.1 to 0.5 µg per mL for the DMC1 dose response assays.

[3] = test system: C. parvum invasion of HCT-8 host cells; assay: HCT-8 host cell invasion assay; type: cell-based, Cryptosporidium parvum; settings: 11.3 µM, HCT-8 invasion 3 h
Method: The invasion assay, DNA replication assay, asexual to sexual stage conversion, and time-kill curve assays were performed using fluorescence microscopy to enumerate parasites and host cell nuclei. Staining protocols are individually described for each assay. Unless noted otherwise, the details of image acquisition were as follows. An inverted Nikon Eclipse Ti2000 microscope with an automated stage and Perfect Focus was used with NIS-Elements Advanced Research software (Nikon, USA, version 4.30.01) to image the wells. The microscope was programmed to focus on the center of each well and then take a 3 × 3 composite image per well using a 20 × (0.45 NA) objective. Images were exported as .tiff files and parasites and host nuclei counted using a custom macro on ImageJ (National Institutes of Health, version 1.52a). Data were analyzed using Microsoft Excel and GraphPad Prism (version 6.01).
Host cell invasion was assayed by allowing C. parvum to invade host cell monolayers in the presence of compound, and enumerating parasites and host cells after just 3 h (i.e., before completion of a parasite division cycle)[38]. HCT-8 cells were grown in RPMI media supplemented with 120 U per mL penicillin and 120 μg per mL streptomycin and 10% heat inactivated fetal bovine serum (complete media) and C. parvum Iowa isolate oocysts from Bunch Grass Farms (Deary, ID) were used for infection. When cells reached a confluence of >99%, media was removed and replaced with 25 µL per well of fresh media containing twice the indicated concentrations of compounds and incubated for 1 h at 37 °C in a humidified CO2 incubator. In the meantime, oocysts were induced for excystation by first treating with 10 mM hydrochloric acid (diluted with distilled water) for 10 min at 37 °C followed by 2 mM sodium taurocholate (in phosphate buffered saline (PBS) with calcium and magnesium) for 10 min at 16 °C. Before and after each treatment, oocysts were spun down at 14,000 × g for 4.5 min and supernatant was removed. […]

[4] = test system: C. parvum (Bunch Grass Farms Iowa isolate); assay: NOD scid gamma (NSG) mouse model of established C. parvum infection; type: in vivo, NOD scid gamma mice; settings: for parasite fecal shedding (qPCR), individual mice: 2,000 mg/kg
Method: NOD scid gamma mice (NOD.Cg-Prkdcscid Il2rgtm1Wjl/SzJ)[55] (NSG) were used to model chronic Cryptosporidium infection. All NSG mouse studies were performed in compliance with animal care guidelines and with approval by the University of Vermont Institutional Animal Care and Use Committee. NSG mice with normal flora were purchased from The Jackson Laboratory (Bar Harbor, ME) and were housed for at least a week for acclimatization. […] Fecal parasite shedding was measured using a quantitative PCR (qPCR) assay, and the primers named above as Cp18s forward and Cp18s reverse.

[5] = test system: C. parvum DMC1 positive parasites; design: method as in PMID 31015448; settings: cited from earlier work

With `CC(=O)Oc1ccccc1C(=O)Nc1ncc([N+](=O)[O-])s1` [Nitazoxanide, nitazoxanide] the “% C. parvum relative to DMSO control” value ([1]; EC90, 0 h exposure) was 92.14% and 109.39% and 105.07% and 102.65%, the “% C. parvum relative to DMSO control” value ([1]; EC90, 6 h exposure) was 89.44% and 63.73% and 107.77% and 101.99% and the “% C. parvum relative to DMSO control” value ([1]; EC90, 12 h exposure) was 64.07% and 50.47% and 61.96% and 52.34%. The “% C. parvum relative to DMSO control” value ([1]; EC90, 24 h exposure) was 33.99% and 23.15% and 39.39% and 30.38%, the “% C. parvum relative to DMSO control” value ([1]; EC90, 48 h exposure) was 66.11% and 87.75% and 96.10% and 82.36% and the “% C. parvum relative to DMSO control” value ([1]; EC90, 72 h exposure) was 59.95% and 89.51% and 62.55% and 99.92%. For the same compound, the time-kill curve result [1] was “likely parasitistatic or very slow acting”, the time-kill curve result ([1]; listed as NTZ) was “No exponential decay curve can be fit” and the “% Parasite / host nuclei” value ([1]; compound at 3 x EC90, 0 h exposure, listed as Nitazonxanide) was 25.13% and 23.57% and 25.93% and 26.94%. The “% Parasite / host nuclei” value ([1]; compound at 3 x EC90, 6 h exposure, listed as Nitazonxanide) was 30.07% and 28.12% and 27.66%, the “% Parasite / host nuclei” value ([1]; compound at 3 x EC90, 24 h exposure, listed as Nitazonxanide) was 13.35% and 18.43% and 17.09% and 15.85% and the “% Parasite / host nuclei” value ([1]; compound at 3 x EC90, 48 h exposure, listed as Nitazonxanide) was 16.05% and 22.2% and 25.78% and 20.53%. The “% Parasite / host nuclei” value ([1]; compound at 3 x EC90, 72 h exposure) was “Toxic”, the “% Parasite / host nuclei” value ([1]; compound at 6 x EC90, 0 h exposure, listed as Nitazonxanide) was 26.94% and 25.13% and 23.57% and 25.93% and the “% Parasite / host nuclei” value ([1]; compound at 6 x EC90, 6 h exposure, listed as Nitazonxanide) was 30.15% and 26.39% and 33.45% and 27.12%. For the same compound, the “% Parasite / host nuclei” value ([1]; compound at 6 x EC90, 24 h exposure, listed as Nitazonxanide) was 10.66% and 16.54% and 13.19% and 15.55%, the “% Parasite / host nuclei” value ([1]; compound at 6 x EC90, 48 h exposure, listed as Nitazonxanide) was 24.32% and 23.51% and 19.71% and 19.93% and the “% Parasite / host nuclei” value ([1]; compound at 6 x EC90, 72 h exposure) was “Toxic”. The “% Parasite / host nuclei” value ([1]; compound at 9 x EC90, 0 h exposure, listed as Nitazonxanide) was 26.94% and 25.13% and 23.57% and 25.93%, the “% Parasite / host nuclei” value ([1]; compound at 9 x EC90, 6 h exposure, listed as Nitazonxanide) was 26.17% and 22.66% and 19.45% and 20.04% and the “% Parasite / host nuclei” value ([1]; compound at 9 x EC90, 24 h exposure, listed as Nitazonxanide) was 13.32% and 10.07% and 14.28% and 12.9%. The “% Parasite / host nuclei” value ([1]; compound at 9 x EC90, 48 h exposure, listed as Nitazonxanide) was 23.17% and 21.12% and 20.67% and 21.26%, the “% Parasite / host nuclei” value ([1]; compound at 9 x EC90, 72 h exposure) was “Toxic” and the “% Parasite / host nuclei” value ([1]; compound at 12 x EC90, 0 h exposure, listed as Nitazonxanide) was 26.94% and 25.13% and 23.57% and 25.93%. The “% Parasite / host nuclei” value ([1]; compound at 12 x EC90, 24 h exposure, listed as Nitazonxanide) was 12.84% and 10.89% and 15.16% and 10.85%, the “% Parasite / host nuclei” value ([1]; compound at 12 x EC90, 48 h exposure, listed as Nitazonxanide) was 17.1% and 18.74% and 17.39% and 22.34% and the “% Parasite / host nuclei” value ([1]; compound at 12 x EC90, 72 h exposure) was “Toxic”. For the same compound, the “% Parasite / host nuclei” value ([1]; compound at EC50, 0 h exposure, listed as Nitazonxanide) was 26.94% and 25.13% and 23.57% and 25.93%, the “% Parasite / host nuclei” value ([1]; compound at EC50, 6 h exposure, listed as Nitazonxanide) was 25.94% and 27.24% and 39.66% and 24.06% and the “% Parasite / host nuclei” value ([1]; compound at EC50, 24 h exposure, listed as Nitazonxanide) was 49.74% and 52.37% and 49.99% and 64.54%. The “% Parasite / host nuclei” value ([1]; compound at EC50, 48 h exposure, listed as Nitazonxanide) was 50.13% and 44.73% and 56.15% and 36.04%, the “% Parasite / host nuclei” value ([1]; compound at EC50, 72 h exposure, listed as Nitazonxanide) was 36.74% and 33.35% and 25.45% and 34.5% and the “% Parasite / host nuclei” value ([1]; compound at EC90, 0 h exposure, listed as Nitazonxanide) was 26.94% and 25.13% and 23.57% and 25.93%. The “% Parasite / host nuclei” value ([1]; compound at EC90, 6 h exposure, listed as Nitazonxanide) was 29.07%, the “% Parasite / host nuclei” value ([1]; compound at EC90, 24 h exposure, listed as Nitazonxanide) was 18.51% and 12.77% and 20.62% and 15.68% and the “% Parasite / host nuclei” value ([1]; compound at EC90, 48 h exposure, listed as Nitazonxanide) was 23.29% and 31.8% and 31.94% and 28.34%. The “% Parasite / host nuclei” value ([1]; compound at EC90, 72 h exposure, listed as Nitazonxanide) was 16.17% and 23.44% and 16.12% and 24.86%, the EC50 ([2]; Cryptosporidium parvum, HCT-8, in Vicia villosa) was 1190 nM and the EC50 [2] was 2090 nM and 1750 nM.

For `CN(C)C[C@H](O)Cn1c2ccc(Br)cc2c2cc(Br)ccc21` (racemic) [Wiskostatin, wiskostatin], the “% Inhibition (normalized to DMSO control)” value [3] was 92% and the inhibition at 11.3 µM ([3]; Cryptosporidium parvum, HCT-8, 3 h, read-out: % Inhibition (normalized to DMSO control)) was 90%.

With `NC[C@@H]1O[C@H](O[C@H]2[C@@H](O)[C@H](O[C@@H]3[C@@H](O)[C@H](N)C[C@H](N)[C@H]3O[C@H]3O[C@H](CO)[C@@H](O)[C@H](O)[C@H]3N)O[C@@H]2CO)[C@H](N)[C@@H](O)[C@@H]1O` [Paromomycin, paromomycin, reference compound] the “parasite fecal shedding (qPCR), individual mice” value ([4]; D7 (before treatment)) was 801.749 oocysts/mg feces and 822.565 oocysts/mg feces and 435.223 oocysts/mg feces and 38.903 oocysts/mg feces, the “parasite fecal shedding (qPCR), individual mice” value ([4]; D11) was 28.872 oocysts/mg feces and 141.665 oocysts/mg feces and 45.072 oocysts/mg feces and 47.829 oocysts/mg feces and the “reduction of fecal parasite shedding” value ([4]; paromomycin positive control, after 4 days of treatment, once daily oral) was roughly 90%.

In the case of `O=C(Nc1ccc(Cl)cc1)N1CCN(c2ccc3nncn3n2)CC1` [MMV665917], the “potency against asexual vs sexual stage parasites” value [5] is listed as “equal potency against asexual and sexual stage parasites”.
